Activity calls are given as the source filed them. No cut-off for these calls is given here.
Experiments:
A2780 [1] = experiment: Induction of apoptosis in human A2780 cells assessed as apoptotic rate measured after 24 to 72 hrs by Annexin V-FITC/PI flow cytometry; format: functional, cell-based; conditions: dose 2-8 nM, time 24-72 hrs
A2780 [2] = experiment: Induction of apoptosis in human A2780 cells assessed as apoptotic rate measured at 2 to 8 nM by Annexin V-FITC/PI flow cytometry; format: functional, cell-based; conditions: dose 2-8 nM, time 24-72 hrs, TDE = time-dependent effect
A2780 [3] = experiment: Induction of apoptosis in human A2780 cells assessed as increase in cleaved PARP level measured after 12 to 48 hrs by Western blot analysis; format: functional, cell-based; conditions: dose 5-20 nM, time 12-48 hrs
A2780 [4] = experiment: Induction of apoptosis in human A2780 cells assessed as increase in cleaved caspase 9 level measured after 12 to 48 hrs by Western blot analysis; format: functional, cell-based; conditions: dose 5-20 nM, time 12-48 hrs
A2780 [5] = experiment: Induction of apoptosis in human A2780 cells assessed as increase in cleaved PARP level measured at 5 to 20 nM by Western blot analysis; format: functional, cell-based; conditions: dose 5-20 nM, time 12-48 hrs, TDE = time-dependent effect
A2780 [6] = experiment: Induction of apoptosis in human A2780 cells assessed as decrease in cleaved Bcl-xL level measured at 5 to 20 nM after 12 to 48 hrs by Western blot analysis; format: functional, cell-based; conditions: dose 5-20 nM, time 12-48 hrs
A2780 [7] = experiment: Cytotoxicity against human A2780 cells assessed as cell viability measured at 4 to 64 nM by MTT assay; format: functional, cell-based; conditions: dose 4-64 nM, time 24-72 hrs, TDE = time-dependent effect
[8] = biological target: MAP kinase p38 (Homo sapiens) (UniProt O15264+Q15759+Q16539+P53778); experiment: Activation of p38 in human A2780 cells assessed as increase phosphorylation of p38 at 5 to 20 nM measured after 24 hrs by Western blot analysis; format: cell-based; conditions: filed as activator, dose 5-20 nM
A2780 [9] = experiment: Cytotoxicity against human A2780 cells assessed as cell viability measured in presence of SB203580 after 48 hrs by MTT assay; format: functional, cell-based
A2780 [10] = experiment: Induction of apoptosis in human A2780 cells assessed as necrotic cells at 800 nM measured after 24 hrs by Annexin V-FITC/PI flow cytometry (reference value: 0.18%); format: functional
A2780 [11] = experiment: Induction of apoptosis in human A2780 cells assessed as early apoptotic cells at 800 nM measured after 24 hrs by Annexin V-FITC/PI flow cytometry (reference value: 2.17%); format: functional
A2780 [12] = experiment: Induction of p38 expression in human A2780 cells in presence of SB203580 at 5 to 20 nM measured after 24 hrs by Western blot analysis; format: functional, cell-based; conditions: dose 5-20 nM
A2780 [13] = experiment: Antiproliferative activity against human A2780 cells assessed as number of fluorescent dots in presence of SB203580 at 4 nM measured after 24 hrs by KitkFluor555 Click-iT EdU Kit staining assay; format: functional, cell-based
A2780 [14] = experiment: Induction of apoptosis in human A2780 cells assessed as late apoptotic cells at 8 nM measured after 24 to 72 hrs by Annexin V-FITC/PI flow cytometry (reference value: 2.54%); format: functional; conditions: time 24-72 hrs
A2780 [15] = experiment: Induction of apoptosis in human A2780 cells assessed as late apoptotic cells in presence of SB203580 at 8 nM measured after 24 to 72 hrs by Annexin V-FITC/PI flow cytometry (reference value: 2.54%); format: functional; conditions: time 24-72 hrs
A2780 [16] = experiment: Cytotoxicity against human A2780 cells assessed as cell viability in presence of p53 SiRNA 1 measured after 48 hrs by MTT assay; format: functional, cell-based
A2780 [17] = experiment: Cytotoxicity against human A2780 cells assessed as cell viability in presence of p53 SiRNA 2 measured after 48 hrs by MTT assay; format: functional, cell-based
A2780 [18] = experiment: Antiproliferative activity against human A2780 cells assessed as number of fluorescent dots in presence of p53 SiRNA 1 at 4 nM measured after 24 hrs by KitkFluor555 Click-iT EdU Kit staining assay; format: functional, cell-based
A2780 [19] = experiment: Induction of apoptosis in human A2780 cells assessed as early apoptotic cells at 4 nM measured after 24 hrs by Annexin V-FITC/PI flow cytometry (reference value: 2.82%); format: functional
A2780 [20] = experiment: Induction of apoptosis in human A2780 cells assessed as viable cells in presence of p53 SiRNA 1 at 4 nM measured after 24 hrs by Annexin V-FITC/PI flow cytometry (reference value: 94.2%); format: functional
A2780 [21] = experiment: Induction of apoptosis in human A2780 cells assessed as necrotic cells in presence of p53 SiRNA 1 at 4 nM measured after 24 hrs by Annexin V-FITC/PI flow cytometry (reference value: 0.39%); format: functional
A2780 [22] = experiment: Induction of apoptosis in human A2780 cells assessed as viable cells in presence of p53 SiRNA 2 at 4 nM measured after 24 hrs by Annexin V-FITC/PI flow cytometry (reference value: 94.2%); format: functional
A2780 [23] = experiment: Induction of apoptosis in human A2780 cells assessed as late apoptotic cells in presence of p53 SiRNA 2 at 4 nM measured after 24 hrs by Annexin V-FITC/PI flow cytometry (reference value: 2.54%); format: functional
A2780 [24] = experiment: Reduction in p62 expression in human A2780 cells at 5 to 20 nM measured after 24 hrs by Western blot analysis; format: functional, cell-based; conditions: dose 5-20 nM
A2780 [25] = experiment: Cytotoxicity against human A2780 cells assessed as cell viability in presence of bafilomycin A1 upto 60 nM measured after 48 hrs by MTT assay; format: functional, cell-based
A2780 [26] = experiment: Induction of cell cycle arrest in human A2780 cells assessed as accumulation of cells at G1 phase at 4 nM measured after 24 hrs by PI staining based ell Cycle Analysis Kit (KeyGEN) (reference value: 53.9%); format: functional
A2780 [27] = experiment: Induction of cell cycle arrest in human A2780 cells assessed as accumulation of cells at S phase at 4 nM measured after 24 hrs by PI staining based Cell Cycle Analysis Kit (KeyGEN) (reference value: 15%); format: functional
A2780 [28] = experiment: Induction of cell cycle arrest at S phase in human A2780 cells assessed as increase in CDK2 proteins in presence of SB203580 measured at 10 nM after 24 hrs by Western blot analysis; format: functional, cell-based
A2780 [29] = experiment: In vivo antitumor activity against human A2780 cells subcutaneously inoculated in BALB/c-nu mouse assessed as inhibition of tumor growth at 3 to 5 mg/kg, ip administered every day for 20 days; format: functional, organism-based; conditions: dose 3-5 mg/kg, time 20.0 day
A2780 [30] = experiment: In vivo antitumor activity against human A2780 cells subcutaneously inoculated in BALB/c-nu mouse assessed as reduction in tumor volume at 3 to 5 mg/kg, ip administered every day for 20 days; format: functional, organism-based; conditions: dose 3-5 mg/kg, time 20.0 day
[31] = Toxicity in BALB/c-nu mouse subcutaneously inoculated with human A2780 cells assessed as change in body weight at 3 to 5 mg/kg, ip administered every day for 20 days; format: organism-based; conditions: in vivo, 480 h, dose 3-5 mg/kg, time 20 day
[32] = Toxicity in BALB/c-nu mouse subcutaneously inoculated with human A2780 cells assessed as morphological changes of liver at 3 to 5 mg/kg, ip administered every day for 20 days by HE staining analysis; format: organism-based; conditions: in vivo, sc, 480 h, dose 3-5 mg/kg, time 20 day

## CC(C)[C@]12O[C@H]1[C@@H]1O[C@]13[C@]1(O[C@H]1C[C@H]1C4=C(CC[C@@]13C)C(=O)OC4)[C@@H]2O [TRIPTOLIDE]
A2780 [1]
  Activity: Dose-Dependent Effect
A2780 [2]
  Activity: Tde
A2780 [3]
  Activity: Dose-Dependent Effect
A2780 [4]
  Activity: Dose-Dependent Effect
A2780 [5]
  Activity: Tde
A2780 [6]
  Activity: Dose-Dependent Effect
A2780 [7]
  Activity: Tde
[8]
  Activity: Active
A2780 [9]
  Activity: inactive
A2780 [10]
  Activity: 2.33%
A2780 [11]
  Activity: 14.7%
A2780 [12]
  Activity: Active
A2780 [13]
  Activity: inactive
A2780 [14]
  Activity: 20%
A2780 [15]
  Activity: 12%
A2780 [16]
  Activity: inactive
A2780 [17]
  Activity: inactive
A2780 [18]
  Activity: inactive
A2780 [19]
  Activity: 29.5%
A2780 [20]
  Activity: 65.9%
A2780 [21]
  Activity: 8.18%
A2780 [22]
  Activity: 66.5%
A2780 [23]
  Activity: 14.4%
A2780 [24]
  Activity: Active
A2780 [25]
  Activity: inactive
A2780 [26]
  Activity: 68.9%
A2780 [27]
  Activity: 29.4%
A2780 [28]
  Activity: inactive
A2780 [29]
  Activity: Active
A2780 [30]
  Activity: Active
[31]
  Activity: Non-Toxic
[32]
  Activity: Non-Toxic
